Results: patent publication US6638961B2 (priority 1994, dated 2003)
Values joined by “and” are separate entries in the source; they are usually repeats but may differ in a detail not shown here. Equal values may be shown once.

Assays:
[1] = test system: Plasmopara viticola (vine downy mildew); test: In vivo trial on Plasmopara viticola (vine downy mildew) by preventive treatment at 72 hours, vine cuttings Chardonnay variety
Experimental: (§1) A 60 mg suspension is prepared comprising compounds A and B in a liquid mixture consisting of 0.3 ml of a surface-active agent (oleate of a polyoxyethylenated derivative of sorbitan) diluted 10% in water and of 60 ml of water.
(§2) Vine cuttings (Vitis vinifera) Chardonnay variety, are cultivated in pots. When these plants are 2 months old (8 to 10-leaf stage, height 10 to 15 cm), they are treated by spraying using the above suspension.
(§3) Plants used as controls are treated with a similar suspension but not containing any active substance (formulation blank).
(§4) After drying for 72 hours, each plant is contaminated by spraying an aqueous Plasmopara viticola spore suspension obtained from sporulated leaves contaminated 7 days earlier. These spores are suspended in an amount of 100,000 units per cm^3.
(§5) The contaminated plants are then incubated for two days at about 18° C., in an atmosphere saturated with moisture, and then for 5 days at 20-22° C. under a relative humidity of 90-100%.

[2] = test system: Phytophthora infestans (tomato blight); format: in vivo; conditions: for dose of the active substance alone which it is necessary to apply to obtain the destruction of 90% of the pest: applied alone, tomato plants sprayed 48 hours before contamination, reading 7 days after contamination
[3] = test system: Plasmopara viticola (vine downy mildew); test: In vivo trial on Plasmopara viticola (vine downy mildew) by preventive treatment at 24 hours, vine cuttings Chardonnay variety; conditions: dose 3.2 mg/l compound A and/or 12.5 mg/l mancozeb; contamination 24 hours after treatment
Experimental: as §1, §2, §3, §4, §5
Example 2 is repeated using as component B mancozeb, using A and B concentrations in the suspension for treating the plants equal to 3.2 and 12.5 mg/l respectively, and finally carrying out the contamination 24 hours after the treatment.
The efficacy measured, as well as the efficacy of products A and B alone measured under the same conditions, is indicated in the table below. […]

Molecule | dose of the active substance alone which it is necessary to apply to obtain the destruction of 90% of the pest ([1]; applied alone, vine plants sprayed 72 hours before contamination, reading 7 days after contamination) [mg/L] | dose of the active substance alone which it is necessary to apply to obtain the destruction of 90% of the pest [2] | Efficacy (in %) [3] [%] | efficacy when applied alone ([1]; applied alone under the trial conditions, preventive 72 hours, 90% destruction level (FIG. 2)) | efficacy when applied alone ([2]; applied alone under the trial conditions, preventive 48 hours, 90% destruction level (FIG. 1))
CSC1=N[C@@](C)(c2ccccc2)C(=O)N1Nc1ccccc1 [Compound A, (4S)-4-methyl-2-methylthio-4-phenyl-1-phenylamino-2-imidazolin-5-one] | 20 | 309 mg/L and 163 mg/L | 80.8 | – | –
CCN(C)C(=O)c1ccc(C(F)(F)F)cc1-c1ccc(OC)c(OC)c1 [N-methyl-N-ethyl-2-(3,4-dimethoxyphenyl)-4-trifluoromethylbenzamide] | – | 166 mg/L | – | – | –
CCO[PH](=O)O [fosetyl-Al] | – | – | – | not effective | not effective
mancozeb | – | – | 0 | – | –
